Test results as given in PMC7614683, “A small molecule PI3Kα activator for cardioprotection and neuroregeneration” (Nature, 2023).

Molecular target: T1, full length p110α/p85α (Homo sapiens, UniProt P42336)
T1 construct: Full-length human p110α was expressed either in a complex with full-length human p85α (for HTS, biochemistry and HDX-MS); 6xHis tag followed by TEV protease site (N); host or cells: Spodoptera frugiperda Sf9, baculovirus
Experiment: HDX-MS
Type: binding
Experimental: Sample preparation: HDX-MS experiments were carried out as described previously. […] In total, three biological replicates, i.e. three separate protein preparations, each with exchange experiments carried out in triplicate were conducted. Data presented in the manuscript is a single biological replicate. Data acquisition and analysis were as follows: Each sample was thawed and injected onto an M-Class Acquity UPLC with HDX Technology (Waters) kept at 0.1°C. Proteins were digested in-line using an Enzymate Pepsin Column (Waters, #186007233) at 15°C for 2 min at 200 μl/min. Peptic peptides were then eluted onto an Acquity UPLC BEH C18 Column (Waters, #186002346) equilibrated in Pepsin-A buffer (0.1% formic acid) and separated using a 5-35% gradient of Pepsin-B buffer (0.1% formic acid, 99% acetonitrile) over 7 min at a flowrate of 40 μl/min. Data were collected on a Waters Cyclic IMS, with an electrospray ionisation source, from 50-2000 m/z. Data were collected in the HDMS^E mode. A single pass of the cyclic IMS was conducted. A “blank” sample of protein dilution buffer with quench was run between samples, and carry-over of peptides was routinely monitored. Five replicates were used to identify non-deuterated peptides. Criteria used to include peptides in the HDX-MS dataset were: minimum intensity 5000, minimum sequence length 5, maximum sequence length 25, a minimum of 3 fragment ions, a minimum of 0.1 products per amino acid, a minimum score of 6.62, a maximum MH+ Error of 10 ppm, identification in at least two datasets with a retention time RSD of less than 10%. Data was analysed using Protein Lynx Global Server (Waters) and DynamX (Waters). All peptides were manually inspected for EX1 kinetics and sufficient quality of the peptide envelope. Data quality, experiment design, and reporting of data meets the criteria as determined by the HDX-MS community. Uptake files were created using Baryonyx. Data are available via ProteomeXchange with identifier PXD037721.

[1] = PK3CA_HUMAN peptide 241-250, time point 3 of 5
[2] = PK3CA_HUMAN peptide 241-250, time point 4 of 5
[3] = PK3CA_HUMAN peptide 241-250, time point 5 of 5
[4] = PK3CA_HUMAN peptide 260-266, time point 1 of 5
[5] = PK3CA_HUMAN peptide 260-266, time point 2 of 5
[6] = PK3CA_HUMAN peptide 260-266, time point 3 of 5
[7] = PK3CA_HUMAN peptide 260-266, time point 4 of 5
[8] = PK3CA_HUMAN peptide 260-266, time point 5 of 5
[9] = PK3CA_HUMAN peptide 262-272, time point 1 of 5
[10] = PK3CA_HUMAN peptide 262-272, time point 2 of 5
[11] = PK3CA_HUMAN peptide 262-272, time point 3 of 5
[12] = PK3CA_HUMAN peptide 262-272, time point 4 of 5
[13] = PK3CA_HUMAN peptide 262-272, time point 5 of 5
[14] = PK3CA_HUMAN peptide 273-281, time point 1 of 5
[15] = PK3CA_HUMAN peptide 273-281, time point 2 of 5
[16] = PK3CA_HUMAN peptide 273-281, time point 3 of 5
[17] = PK3CA_HUMAN peptide 273-281, time point 4 of 5
[18] = PK3CA_HUMAN peptide 273-281, time point 5 of 5
[19] = PK3CA_HUMAN peptide 278-286, time point 1 of 5
[20] = PK3CA_HUMAN peptide 278-286, time point 2 of 5
[21] = PK3CA_HUMAN peptide 278-286, time point 3 of 5
[22] = PK3CA_HUMAN peptide 278-286, time point 4 of 5
[23] = PK3CA_HUMAN peptide 278-286, time point 5 of 5
[24] = PK3CA_HUMAN peptide 287-293, time point 1 of 5
[25] = PK3CA_HUMAN peptide 287-293, time point 2 of 5
[26] = PK3CA_HUMAN peptide 287-293, time point 3 of 5
[27] = PK3CA_HUMAN peptide 287-293, time point 4 of 5
[28] = PK3CA_HUMAN peptide 287-293, time point 5 of 5
[29] = PK3CA_HUMAN peptide 288-293, time point 1 of 5
[30] = PK3CA_HUMAN peptide 288-293, time point 2 of 5
[31] = PK3CA_HUMAN peptide 288-293, time point 3 of 5
[32] = PK3CA_HUMAN peptide 288-293, time point 4 of 5
[33] = PK3CA_HUMAN peptide 288-293, time point 5 of 5
[34] = PK3CA_HUMAN peptide 326-333, time point 1 of 5
[35] = PK3CA_HUMAN peptide 326-333, time point 2 of 5
[36] = PK3CA_HUMAN peptide 326-333, time point 3 of 5
[37] = PK3CA_HUMAN peptide 326-333, time point 4 of 5

T1 sequence (P42336 whole entry): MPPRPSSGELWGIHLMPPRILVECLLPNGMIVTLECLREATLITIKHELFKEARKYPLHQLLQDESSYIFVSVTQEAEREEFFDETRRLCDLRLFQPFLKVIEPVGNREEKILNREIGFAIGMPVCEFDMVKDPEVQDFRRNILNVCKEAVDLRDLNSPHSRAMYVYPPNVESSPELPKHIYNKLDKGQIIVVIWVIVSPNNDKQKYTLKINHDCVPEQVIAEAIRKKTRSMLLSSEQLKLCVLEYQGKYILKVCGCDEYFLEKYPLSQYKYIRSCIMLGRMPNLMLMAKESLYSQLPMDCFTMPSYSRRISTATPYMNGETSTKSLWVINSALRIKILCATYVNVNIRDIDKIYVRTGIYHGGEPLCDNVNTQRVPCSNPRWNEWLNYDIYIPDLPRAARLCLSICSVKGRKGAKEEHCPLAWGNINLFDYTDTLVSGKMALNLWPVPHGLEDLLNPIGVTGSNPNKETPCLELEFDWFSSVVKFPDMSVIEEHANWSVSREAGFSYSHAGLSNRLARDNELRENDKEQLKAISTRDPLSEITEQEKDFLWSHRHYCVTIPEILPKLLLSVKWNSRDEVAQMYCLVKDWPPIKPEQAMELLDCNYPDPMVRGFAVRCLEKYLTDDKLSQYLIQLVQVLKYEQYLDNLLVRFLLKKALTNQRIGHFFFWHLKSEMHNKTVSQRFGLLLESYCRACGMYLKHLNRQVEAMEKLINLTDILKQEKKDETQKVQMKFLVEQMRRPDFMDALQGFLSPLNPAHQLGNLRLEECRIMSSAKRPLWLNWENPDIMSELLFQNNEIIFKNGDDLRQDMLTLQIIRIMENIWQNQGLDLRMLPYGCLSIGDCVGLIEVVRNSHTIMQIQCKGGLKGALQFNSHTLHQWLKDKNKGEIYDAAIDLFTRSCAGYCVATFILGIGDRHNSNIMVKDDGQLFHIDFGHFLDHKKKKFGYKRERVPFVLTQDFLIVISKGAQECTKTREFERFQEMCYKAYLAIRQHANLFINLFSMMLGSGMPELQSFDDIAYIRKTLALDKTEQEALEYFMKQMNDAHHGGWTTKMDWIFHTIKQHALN
T1 sequence (P27986 whole entry partner): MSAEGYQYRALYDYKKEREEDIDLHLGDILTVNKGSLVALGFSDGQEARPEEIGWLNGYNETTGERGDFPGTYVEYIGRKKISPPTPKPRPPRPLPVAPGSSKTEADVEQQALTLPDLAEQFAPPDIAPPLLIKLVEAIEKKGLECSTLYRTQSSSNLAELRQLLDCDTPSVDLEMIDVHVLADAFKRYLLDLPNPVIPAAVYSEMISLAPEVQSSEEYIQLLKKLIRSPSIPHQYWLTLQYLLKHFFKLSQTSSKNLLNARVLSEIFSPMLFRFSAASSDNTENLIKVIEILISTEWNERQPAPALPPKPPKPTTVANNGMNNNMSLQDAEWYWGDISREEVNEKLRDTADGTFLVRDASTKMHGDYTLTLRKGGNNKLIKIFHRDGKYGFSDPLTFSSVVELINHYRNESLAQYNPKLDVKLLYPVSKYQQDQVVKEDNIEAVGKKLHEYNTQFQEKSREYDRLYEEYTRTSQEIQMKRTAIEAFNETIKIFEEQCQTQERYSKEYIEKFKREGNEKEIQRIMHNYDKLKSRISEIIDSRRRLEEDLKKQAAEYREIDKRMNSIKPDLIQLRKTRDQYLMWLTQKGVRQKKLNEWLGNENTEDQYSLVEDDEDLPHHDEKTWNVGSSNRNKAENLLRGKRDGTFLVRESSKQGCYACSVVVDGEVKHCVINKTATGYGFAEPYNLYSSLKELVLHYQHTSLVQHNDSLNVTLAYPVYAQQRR

SMILES: CCN1CCN(c2ccc(Nc3cc(Nc4cccc5c4N(C(C)=O)CC5)ccn3)cc2)CC1 [Compound 1938]
- HDX difference (%D) [1]: 0.6%
- HDX difference (Da) [1]: 0.0529 Da
- HDX difference (%D) [2]: 0.112%
- HDX difference (Da) [2]: 0.01 Da
- HDX difference (%D) [3]: 0.113%
- HDX difference (Da) [3]: 0.01 Da
- HDX difference (%D) [4]: -0.0157%
- HDX difference (Da) [4]: -0.000943 Da
- HDX difference (%D) [5]: 0.0014%
- HDX difference (Da) [5]: 8.39e-5 Da
- HDX difference (%D) [6]: 0.136%
- HDX difference (Da) [6]: 0.00818 Da
- HDX difference (%D) [7]: 0.659%
- HDX difference (Da) [7]: 0.04 Da
- HDX difference (%D) [8]: 1.2%
- HDX difference (Da) [8]: 0.07 Da
- HDX difference (%D) [9]: -0.8%
- HDX difference (Da) [9]: -0.07 Da
- HDX difference (%D) [10]: 0.264%
- HDX difference (Da) [10]: 0.0238 Da
- HDX difference (%D) [11]: 0.3%
- HDX difference (Da) [11]: 0.0282 Da
- HDX difference (%D) [12]: -0.571%
- HDX difference (Da) [12]: -0.05 Da
- HDX difference (%D) [13]: -0.7%
- HDX difference (Da) [13]: -0.06 Da
- HDX difference (%D) [14]: 1.3%
- HDX difference (Da) [14]: 0.10 Da
- HDX difference (%D) [15]: 0.9%
- HDX difference (Da) [15]: 0.07 Da
- HDX difference (%D) [16]: 0.8%
- HDX difference (Da) [16]: 0.06 Da
- HDX difference (%D) [17]: 0.743%
- HDX difference (Da) [17]: 0.06 Da
- HDX difference (%D) [18]: 0.428%
- HDX difference (Da) [18]: 0.0342 Da
- HDX difference (%D) [19]: -0.131%
- HDX difference (Da) [19]: -0.01 Da
- HDX difference (%D) [20]: -0.178%
- HDX difference (Da) [20]: -0.0142 Da
- HDX difference (%D) [21]: -0.652%
- HDX difference (Da) [21]: -0.05 Da
- HDX difference (%D) [22]: -1.2%
- HDX difference (Da) [22]: -0.10 Da
- HDX difference (%D) [23]: -1.0%
- HDX difference (Da) [23]: -0.08 Da
- HDX difference (%D) [24]: 0.00815%
- HDX difference (Da) [24]: 0.000489 Da
- HDX difference (%D) [25]: 0.168%
- HDX difference (Da) [25]: 0.01 Da
- HDX difference (%D) [26]: -0.19%
- HDX difference (Da) [26]: -0.0114 Da
- HDX difference (%D) [27]: -0.0604%
- HDX difference (Da) [27]: -0.00362 Da
- HDX difference (%D) [28]: -0.4%
- HDX difference (Da) [28]: -0.0241 Da
- HDX difference (%D) [29]: -0.334%
- HDX difference (Da) [29]: -0.0167 Da
- HDX difference (%D) [30]: -0.17%
- HDX difference (Da) [30]: -0.00848 Da
- HDX difference (%D) [31]: -0.5%
- HDX difference (Da) [31]: -0.0241 Da
- HDX difference (%D) [32]: 0.8%
- HDX difference (Da) [32]: 0.04 Da
- HDX difference (%D) [33]: -0.113%
- HDX difference (Da) [33]: -0.00564 Da
- HDX difference (%D) [34]: -1.8%
- HDX difference (Da) [34]: -0.13 Da
- HDX difference (%D) [35]: -4.4%
- HDX difference (Da) [35]: -0.31 Da
- HDX difference (%D) [36]: -3.0%
- HDX difference (Da) [36]: -0.21 Da
- HDX difference (%D) [37]: -3.1%
- HDX difference (Da) [37]: -0.21 Da
- HDX difference (%D) (PK3CA_HUMAN peptide 326-333, time point 5 of 5): -4.2%
